Reference: the supplement of paper PMC10307832

Columns and labels:
Test in all cases: relative viability (nuclei count vs DMSO), 5 days (fraction); higher = more cells survive
[1] = compound: C1CSC2=C(C(=O)N1)SC3=C2C=C(C=C3)O [kb NB 142-70] + CC(=O)Nc1cccc(-n2c(=O)n(C3CC3)c(=O)c3c(Nc4ccc(I)cc4F)n(C)c(=O)c(C)c32)c1 [Trametinib] (partner 0.02 µM)
In short: (§1)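 Each reported value is a median over duplicate plates. It expresses relative viability: treated-well nuclei count divided by vehicle-well nuclei count. Lung cancer cell lines in 1536-well plates were dosed by pin tool a day after seeding, alone with one drug or with a fixed anchor-drug dose plus five library-drug doses (not always all listed) in √10 steps, and nuclei were counted after 5 days.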

[2] = compound: C1CSC2=C(C(=O)N1)SC3=C2C=C(C=C3)O [kb NB 142-70] + C[C@]1(O)C[C@@H](c2nc(-c3ccc4ccc(-c5ccccc5)nc4c3)c3c(N)nccn32)C1 [Linsitinib] (partner 1 µM)
In short: as §1

[3] = compound: NCC(=O)Nc1ccc(-n2nc(C(F)(F)F)cc2-c2ccc3c(ccc4ccccc43)c2)cc1 + N=C(N)NC(=N)NCCc1ccccc1 [Phenformin] (partner 250 µM)
In short: as §1

[4] = compound: NCC(=O)Nc1ccc(-n2nc(C(F)(F)F)cc2-c2ccc3c(ccc4ccccc43)c2)cc1 + Nc1nc2[nH]cc(CCc3ccc(C(=O)N[C@@H](CCC(=O)O)C(=O)O)cc3)c2c(=O)[nH]1 [Pemetrexed] (partner 0.2 µM)
In short: as §1

| Cell Line | relative viability ([1]; first compound 0.1 µM) | relative viability ([1]; first compound 1 µM) | relative viability ([1]; first compound 3.162 µM) | relative viability ([2]; first compound 0.1 µM) | relative viability ([2]; first compound 1 µM) | relative viability ([2]; first compound 3.162 µM) | relative viability ([3]; first compound 0.02 µM) | relative viability ([3]; first compound 0.06325 µM) | relative viability ([3]; first compound 0.2 µM) | relative viability ([3]; first compound 0.6325 µM) | relative viability ([3]; first compound 2 µM) | relative viability ([4]; first compound 0.02 µM) | relative viability ([4]; first compound 0.06325 µM) | relative viability ([4]; first compound 0.2 µM) | relative viability ([4]; first compound 0.6325 µM) | relative viability ([4]; first compound 2 µM) |
| --- | --- | --- | --- | --- | --- | --- | --- | --- | --- | --- | --- | --- | --- | --- | --- | --- |
| LK-2 | 0.814 | 0.651 | 0.729 | 0.751 | 0.384 | 0.245 | 0.31 | 0.638 | 0.425 | 0.496 | 0.435 | 0.295 | 0.207 | 0.294 | 0.256 | 0.217 |
| HCC-366 | 0.321 | 0.274 | 0.232 | 0.658 | 0.462 | 0.214 | 0.589 | 0.649 | 0.595 | 0.625 | 0.596 | 0.173 | 0.149 | 0.183 | 0.162 | 0.282 |
| BEN | 1.02 | 0.99 | 0.892 | 0.793 | 0.893 | 0.724 | 0.249 | 0.239 | 0.302 | 0.269 | 0.228 | 0.782 | 0.869 | 0.775 | 0.758 | 0.688 |
| NCI-H23 | 0.37 | 0.29 | 0.278 | 0.708 | 0.529 | 0.289 | 0.702 | 0.801 | 0.802 | 0.823 | 0.799 | 0.656 | 0.707 | 0.56 | 0.63 | 0.665 |
